Assay results: patent US8790712B2, “Constitutional function-improving agents” (Cosmo Oil Co., Ltd., priority 2004, dated 2014)

Assays:
CD4-CD8+ cells = test: Subset test of lymphocytes from thymus (Example 2); assay type: in vivo, mouse; details: 10 mg/kg orally once a day for 7 days
Protocol: Mice (35 to 45 weeks old, BALB/cAJc1) preliminary raised for 1 week were injected with 10 mg of ALA hydrochloride per 1 kg mouse body weight once a day for 7 days continuously. ALA hydrochloride was adjusted to a concentration of […] with distilled water and orally administered to the mice. After the test, each mouse was sacrificed and the weight of its thymus and the number of cells were measured. In addition, a subset test of lymphocytes was carried out using the obtained cells. The test was carried out using 5 mice per 1 plot, and their values were shown by average value. […] Also, since the cell of CD4-CD8+ was increased in the ALA-treated plot based on the subset test, it was confirmed that the cytotoxic T cell increases after its future differentiation, so that its immunological function improving ability was shown (Table 3). In addition, photographs of the thymus of untreated plot (un-administered group) and the thymus of ALA-treated plot (ALA-treated group) are shown in FIG. 1.

[1] = tested on: glutathione peroxidase (GPx); test: GPx activity of thymus tissue (Example 3); assay type: in vivo, mouse; details: 10 mg/kg orally once a day for 7 days
Protocol: Mice (35 to 45 weeks old, BALB/cAJc1) preliminary raised for 1 week were injected with 10 mg of ALA hydrochloride per 1 kg mouse body weight once a day for 7 days continuously. ALA hydrochloride was adjusted to a concentration of […] with distilled water and orally administered to the mice. After the test, each mouse was sacrificed and the thymus of mouse was collected to measure superoxide dismutase (SOD) activity of its tissue. To the collected thymus, 1.0 ml of 0.25 M sucrose solution was added, and the mixture homogenized and then centrifuged at 10,000 G for 10 minutes, and the resulting supernatant solution was used as the enzyme solution. […] That is, 250 μl of a reaction solution containing 125 μl of 0.1 M potassium phosphate buffer (pH 7.5), 10 μl of the enzyme liquid, 60 μl of 0.1 unit/ml xanthine oxidase, 45 μl of distilled water and 10 μl of 0.3 mM MPEC was dispensed into Luminescencer-PSN (manufactured by Atto Corp.), 50 μl of 0.72 mM hypoxanthine (pH 7.5) was added for emission. […]
In addition, glutathione peroxidase (GPx) activity was also measured. […]
The calculation was carried out by the following formula using the molecular extinction coefficient of NADPH of a=6.3 cm^2/μmole, by calculating the slope of straight line ΔOD (ΔOD=Δcm (quantity of change of y axis)×OD Max/full cm) from the chart. […]

[2] = tested on: γ-GTP (gamma glutamyl transpeptidase); test: Blood plasma γ-GTP of broiler chicks (Example 9); assay type: in vivo, chick
Excerpt: A total of 300 chicks, 150 chicks for females and males respectively, of broiler primary chicks (Chunky) were purchased. After the purchase, chicks having abnormality (weakness or dwarf) were excluded, and the rest were equipped with wing belts for individual identification and their body weights were individually measured. […] Using 15 female or male chicks (30 chicks in total) as 1 group, they were put into a Chick Gird arranged in a closed type barn, and warmed by arranging an infrared ray lamp for animal use. The Chick Gird was expanded along with the growth of chicks. The feed and drinking water were constantly provided. The test groups were set to a total of 3 groups containing a control group in which a control feed (a standard testing feed SDB No. 1 was used from the neonatal to 3 weeks old, or a standard testing feed SDB No. 2 from 3 weeks old to 7 weeks old, (both manufactured by Nippon Formula Feed Mfg Co., Ltd., Table 9) without adding ALA hydrochloride is provided, and 2 test groups of ALA-10 ppm treated group and ALA-50 ppm treated group in which 10 ppm or 50 ppm of ALA hydrochloride is added to the feed and provided, and 3 repetition plots were arranged for each group. The number of chicks to be tested in each test group was as shown in Table 10. The test period was set to 7 weeks (7 weeks old) from the neonatal (start of the added feed provision), and total body weight of females or males was measured for each repetition plot at the time of the neonatal and at intervals of 1 week thereafter. In addition, about 2 ml of blood was collected from a brachial vein (basilic vein) of each of 18 chicks (3 female or male chicks/repetition) of each group at 3 weeks old and 7 weeks old, and about 1.5 ml thereof was subjected to a coagulation preventing treatment using heparin-lithium salt and then the blood plasma was separated to inspect the items of LDH, GOT (AST), γ-GTP, ALP, total protein, albumin, globulin, total cholesterol, triglyceride, glucose, uric acid, total bilirubin, uric acid, creatinine, calcium and inorganic phosphorus.

NCC(=O)CCC(=O)O [ALA, 5-aminolevulinic acid]
CD4−CD8+ (%) (CD4-CD8+ cells; female mice): 3.25% | CD4−CD8+ (%) (CD4-CD8+ cells; male mice): 5.55% | GPx activity ([1]; female mice): 0.67 U/ml | GPx activity ([1]; male mice): 0.61 U/ml | γ-GTP (IU/l) ([2]; 10 ppm in feed, 3 weeks old): 29.7 IU/l | γ-GTP (IU/l) ([2]; 10 ppm in feed, 7 weeks old): 29.7 IU/l | γ-GTP (IU/l) ([2]; 50 ppm in feed, 3 weeks old): 30.0 IU/l | γ-GTP (IU/l) ([2]; 50 ppm in feed, 7 weeks old): 32.7 IU/l
